What was measured:
Experiment in all cases: In vitro assay of antibacterial activity (agar dilution MIC)
Assay type in all cases: cell-based
[1] = system: Actinetobacter calcoaceticus CMX 669; details: BHI agar, 35-37 °C, 20 to 24 hours, unit assumed
Method: (§1) Representative compounds of the present invention were assayed in vitro for antibacterial activity as follows: Twelve petri dishes containing successive aqueous dilutions of the test compound mixed with 10 mL of sterilized Brain Heart Infusion (BHI) agar (Difco 0418-01-5) were prepared. Each plate was inoculated with 1:100 (or 1:10 for slow-growing strains, such as Micrococcus and Streptococcus) dilutions of up to 32 different microorganisms, using a Steers replicator block. The inoculated plates were incubated at 35-37 °C for 20 to 24 hours, In addition, a control plate, using BHI agar containing no test compound, was prepared and incubated at the beginning and end of each test.
(§2) An additional plate containing a compound having known susceptibility patterns for the organisms being tested and belonging to the same antibiotic class as the test compound was also prepared and incubated as a further control, as well as to provide test-to-test comparability.
(§3) After incubation, each plate was visually inspected. The minimum inhibitory concentration (MIC) was defined as the lowest concentration of drug yielding no growth, a slight haze, or sparsely isolated colonies on the inoculum spot as compared to the growth control. […]

[2] = system: Staphylococcus aureus A5177; details: BHI agar, 35-37 °C, 20 to 24 hours, unit assumed
Method: as §1, §2, §3

Escherichia coli JUHL = details: BHI agar, 35-37 °C, 20 to 24 hours, in µg/mL (unit assumed)
Method: as §1
as §2, with “comparability. Erythromycin A was used for this purpose.” for “comparability.”
as §3

[3] = system: Streptococcus pyogenes PIU 2548; details: BHI agar, 35-37 °C, 20 to 24 hours, unit assumed
Method: as §1
as §2, with “comparability. Erythromycin A was used for this purpose.” for “comparability.”
as §3

[4] = system: Pseudomonas aeruginosa DPHD-2862; details: BHI agar, 35-37 °C, 20 to 24 hours, unit assumed
Method: as §1
as §2, with “comparability. Erythromycin A was used for this purpose.” for “comparability.”
as §3

[5] = system: Streptococcus pyogenes 930; details: BHI agar, 35-37 °C, 20 to 24 hours, unit assumed
Method: as §1
as §2, with “comparability. Erythromycin A was used for this purpose.” for “comparability.”
as §3

[6] = system: Providencia struartii CMX 640; details: BHI agar, 35-37 °C, 20 to 24 hours, unit assumed
Method: as §1
as §2, with “comparability. Erythromycin A was used for this purpose.” for “comparability.”
as §3

Escherichia coli H560 = details: BHI agar, 35-37 °C, 20 to 24 hours, unit assumed
Method: as §1
as §2, with “comparability. Erythromycin A was used for this purpose.” for “comparability.”
as §3

[7] = system: Mycobacterium smegmatis ATCC 114; details: BHI agar, 35-37 °C, 20 to 24 hours, unit assumed
Method: as §1
as §2, with “comparability. Erythromycin A was used for this purpose.” for “comparability.”
as §3

[8] = system: Pseudomonas aeruginosa BMH10; details: BHI agar, 35-37 °C, 20 to 24 hours, in µg/mL (unit assumed)
Method: as §1
as §2, with “comparability. Erythromycin A was used for this purpose.” for “comparability.”
as §3

[9] = system: Enterobacter aerogenes ATCC 13048; details: BHI agar, 35-37 °C, 20 to 24 hours, unit assumed
Method: as §1
as §2, with “comparability. Erythromycin A was used for this purpose.” for “comparability.”
as §3

[10] = system: Pseudomonas aeruginosa K799/WT; details: BHI agar, 35-37 °C, 20 to 24 hours, unit assumed
Method: as §1
as §2, with “comparability. Erythromycin A was used for this purpose.” for “comparability.”
as §3

[11] = system: Enterococcus faecium ATCC 8043; details: BHI agar, 35-37 °C, 20 to 24 hours, unit assumed
Method: as §1
as §2, with “comparability. Erythromycin A was used for this purpose.” for “comparability.”
as §3

Pseudomonas capacia 2961 = details: BHI agar, 35-37 °C, 20 to 24 hours, in µg/mL (unit assumed)
Method: as §1
as §2, with “comparability. Erythromycin A was used for this purpose.” for “comparability.”
as §3

[12] = system: Streptococcus agalactiae CMX 508; details: BHI agar, 35-37 °C, 20 to 24 hours, unit assumed
Method: as §1
as §2, with “comparability. Erythromycin A was used for this purpose.” for “comparability.”
as §3

[13] = system: Staphylococcus aureus CMX 553; details: BHI agar, 35-37 °C, 20 to 24 hours, unit assumed
Method: as §1
as §2, with “comparability. Erythromycin A was used for this purpose.” for “comparability.”
as §3

[14] = system: Staphylococcus aureus 1775; details: BHI agar, 35-37 °C, 20 to 24 hours, unit assumed
Method: as §1
as §2, with “comparability. Erythromycin A was used for this purpose.” for “comparability.”
as §3

Escherichia coli DC-2 = details: BHI agar, 35-37 °C, 20 to 24 hours, unit assumed
Method: as §1
as §2, with “comparability. Erythromycin A was used for this purpose.” for “comparability.”
as §3

[15] = system: Staphylococcus aureus ATCC 6538P; details: BHI agar, 35-37 °C, 20 to 24 hours, unit assumed
Method: as §1
as §2, with “comparability. Erythromycin A was used for this purpose.” for “comparability.”
as §3

Candida albicans CCH 442 = details: BHI agar, 35-37 °C, 20 to 24 hours, unit assumed
Method: as §1
as §2, with “comparability. Erythromycin A was used for this purpose.” for “comparability.”
as §3

Escherichia coli KNK 437 = details: BHI agar, 35-37 °C, 20 to 24 hours, unit assumed
Method: as §1
as §2, with “comparability. Erythromycin A was used for this purpose.” for “comparability.”
as §3

[16] = system: Micrococcus luteus ATCC 9341; details: BHI agar, 35-37 °C, 20 to 24 hours, unit assumed
Method: as §1
as §2, with “comparability. Erythromycin A was used for this purpose.” for “comparability.”
as §3

[17] = system: Staphylococcus aureus CMX 642A; details: BHI agar, 35-37 °C, 20 to 24 hours, unit assumed
Method: as §1
as §2, with “comparability. Erythromycin A was used for this purpose.” for “comparability.”
as §3

[18] = system: Pseudomonas aeruginosa 5007; details: BHI agar, 35-37 °C, 20 to 24 hours, unit assumed
Method: as §1
as §2, with “comparability. Erythromycin A was used for this purpose.” for “comparability.”
as §3

[19] = system: Staphylococcus aureus NCTC10649M; details: BHI agar, 35-37 °C, 20 to 24 hours, unit assumed
Method: as §1
as §2, with “comparability. Erythromycin A was used for this purpose.” for “comparability.”
as §3

[20] = system: Klebsiella pneumoniae ATCC 8045; details: BHI agar, 35-37 °C, 20 to 24 hours, unit assumed
Method: as §1
as §2, with “comparability. Erythromycin A was used for this purpose.” for “comparability.”
as §3

[21] = system: Streptococcus pyogenes EES61; details: BHI agar, 35-37 °C, 20 to 24 hours, unit assumed
Method: as §1
as §2, with “comparability. Erythromycin A was used for this purpose.” for “comparability.”
as §3

[22] = system: Staphylococcus epidermidis 3519; details: BHI agar, 35-37 °C, 20 to 24 hours, unit assumed
Method: as §1
as §2, with “comparability. Erythromycin A was used for this purpose.” for “comparability.”
as §3

Escherichia coli SS = details: BHI agar, 35-37 °C, 20 to 24 hours, unit assumed
Method: as §1
as §2, with “comparability. Erythromycin A was used for this purpose.” for “comparability.”
as §3

[23] = system: Pseudomonas aeruginosa K799/61; details: BHI agar, 35-37 °C, 20 to 24 hours, unit assumed
Method: as §1
as §2, with “comparability. Erythromycin A was used for this purpose.” for “comparability.”
as §3

[24] = system: Staphylococcus aureus A-5278; details: BHI agar, 35-37 °C, 20 to 24 hours, unit assumed
Method: as §1
as §2, with “comparability. Erythromycin A was used for this purpose.” for “comparability.”
as §3

[25] = system: Pseudomonas aeruginosa DPHD-5263; details: BHI agar, 35-37 °C, 20 to 24 hours, in µg/mL (unit assumed)
Method: as §1
as §2, with “comparability. Erythromycin A was used for this purpose.” for “comparability.”
as §3

[26] = system: Micrococcus luteus ATCC 4698; details: BHI agar, 35-37 °C, 20 to 24 hours, unit assumed
Method: as §1
as §2, with “comparability. Erythromycin A was used for this purpose.” for “comparability.”
as §3

[27] = system: Streptococcus bovis A-5169; details: BHI agar, 35-37 °C, 20 to 24 hours, unit assumed
Method: as §1
as §2, with “comparability. Erythromycin A was used for this purpose.” for “comparability.”
as §3

Row | SMILES | MIC [1] | MIC [2] | MIC (Escherichia coli JUHL) | MIC [4] | MIC [5] | MIC [6] | MIC (Escherichia coli H560) | MIC [7] | MIC [8] | MIC [9] | MIC [10] | MIC [11] | MIC (Pseudomonas capacia 2961) | MIC [12] | MIC [13] | MIC [14] | MIC (Escherichia coli DC-2) | MIC [15] | MIC (Candida albicans CCH 442) | MIC (Escherichia coli KNK 437) | other results
1 | CC[C@H]1OC(=O)[C@H](C)[C@@H](O[C@H]2C[C@@](C)(OC)[C@@H](O)[C@H](C)O2)[C@H](C)[C@@H](O[C@@H]2O[C@H](C)C[C@H](N(C)C)[C@H]2O)[C@](C)(OCC(O)CN2CCOCC2)C[C@@H](C)C(=O)[C@H](C)[C@@H](O)[C@]1(C)O (stereo partly drawn) [Example 6, Comnound of Formula (X): X is =O, R is 2-hydroxy-3-(morpholin-4-yl)propyl] | 25 µg/mL | 25 µg/mL | > 100 | > 100 µg/mL | > 100 µg/mL | > 100 µg/mL | 100 µg/mL | 0.2 µg/mL | > 100 | > 100 µg/mL | > 100 µg/mL | 0.39 µg/mL | > 100 | 0.1 µg/mL | 0.78 µg/mL | > 100 µg/mL | > 100 µg/mL | 0.78 µg/mL | > 100 µg/mL | > 100 µg/mL | MIC [3]: 6.2 µg/mL; MIC [16]: 0.1 µg/mL; MIC [17]: 1.56 µg/mL; MIC [18]: > 100 µg/mL; MIC [19]: 0.78 µg/mL; MIC [20]: > 100 µg/mL; MIC [21]: 0.05 µg/mL; MIC [22]: 0.78 µg/mL; MIC (Escherichia coli SS): 0.78 µg/mL; MIC [23]: 12.5 µg/mL; MIC [24]: > 100 µg/mL; MIC [25]: > 100; MIC [26]: 1.56 µg/mL
2 | CC[C@H]1OC(=O)[C@H](C)[C@@H](O[C@H]2C[C@@](C)(OC)[C@@H](O)[C@H](C)O2)[C@H](C)[C@@H](O[C@@H]2O[C@H](C)C[C@H](N(C)C)[C@H]2O)[C@](C)(OCC(O)CNCc2ccccc2)C[C@@H](C)C(=O)[C@H](C)[C@@H](O)[C@]1(C)O (stereo partly drawn) [Example 7, Compound of Formula (X): X is =O, R is 2-hydroxy-3-(benzylamino)propyl] | 12.5 µg/mL | 3.1 µg/mL | 12.5 | > 100 µg/mL | > 100 µg/mL | > 100 µg/mL | 1.56 µg/mL | 0.2 µg/mL | 25 | 50 µg/mL | 100 µg/mL | 0.39 µg/mL | > 100 | 0.01 µg/mL | 0.39 µg/mL | > 100 µg/mL | 6.2 µg/mL | 0.39 µg/mL | > 100 µg/mL | 12.5 µg/mL | MIC [16]: 0.02 µg/mL; MIC [27]: 0.01 µg/mL; MIC [17]: 0.39 µg/mL; MIC [18]: > 100 µg/mL; MIC [19]: 0.39 µg/mL; MIC [20]: 25 µg/mL; MIC [21]: 0.01 µg/mL; MIC [22]: 0.39 µg/mL; MIC (Escherichia coli SS): 0.2 µg/mL; MIC [23]: 0.39 µg/mL; MIC [24]: > 100 µg/mL; MIC [25]: > 100; MIC [26]: 0.78 µg/mL
3 | C#CCO[C@]1(C)C[C@@H](C)C(=O)[C@H](C)[C@@H](O)[C@](C)(O)[C@@H](CC)OC(=O)[C@H](C)[C@@H](O[C@H]2C[C@@](C)(OC)[C@@H](O)[C@H](C)O2)[C@H](C)[C@H]1O[C@@H]1O[C@H](C)C[C@H](N(C)C)[C@H]1O [Example 10, Compound of Formula (X): X is =O, R is -CH2-C≡CH] | 12.5 µg/mL | 6.2 µg/mL | 50 | > 100 µg/mL | > 100 µg/mL | > 100 µg/mL | 25 µg/mL | 0.39 µg/mL | 100 | > 100 µg/mL | > 100 µg/mL | 0.1 µg/mL | >100 | 0.05 µg/mL | 0.39 µg/mL | > 100 µg/mL | 100 µg/mL | 0.2 µg/mL | > 100 µg/mL | > 100 µg/mL | MIC [16]: 0.05 µg/mL; MIC [27]: 0.01 µg/mL; MIC [17]: 0.39 µg/mL; MIC [18]: > 100 µg/mL; MIC [19]: 0.39 µg/mL; MIC [20]: > 100 µg/mL; MIC [21]: 0.01 µg/mL; MIC [22]: 0.2 µg/mL; MIC (Escherichia coli SS): 0.78 µg/mL; MIC [23]: 3.1 µg/mL; MIC [24]: > 100 µg/mL; MIC [25]: > 100; MIC [26]: 0.78 µg/mL

Source: EP1007530B1, “6-O-SUBSTITUTED ERYTHROMYCIN COMPOUNDS AND METHOD FOR MAKING SAME” (ABBOTT LABORATORIES, priority 1996, dated 1997)
